In patent US10669305B2, “C-3 novel triterpenone with C-28 urea derivatives as HIV inhibitors” (Hetero Labs Limited, priority 2015, dated 2020) one finds IC50 data, which are given here for 12 molecules.

As usually defined, the IC50 is the concentration that gives 50% inhibition.

The experiment has as its system HIV-1 strain 92HT599. Put plainly: Antiviral activity, p24 estimation in HIV-1 92HT599 infected MT2 cells. It counts as cell-based. As to conditions: ~96 hours. How it is done:
MT2 cells were infected with HIV-1 strain 92HT599 (10 TCID 50/30000 cells). The infected cells were plated at the concentration of ˜30,000 cells per well in 96 well plate. Test compound was added to the micro plate in defined format with the final concentration of DMSO (vehicle) is not more than 1%. Incubation was carried out in CO2 incubator for ˜96 hours for viral infection. At the end of incubation period an aliquot from each well was taken for p24 estimation. The quantitation of p24 is an index for antiviral activity of the compound. Percent inhibition was calculated with reference to control values (vehicle controls). P-24 estimation was carried out using Advance biosciences kit as per the procedure detailed by supplier.

Setting [1] is: Human immunodeficiency virus 1, 0% serum, read-out: 92HT599-Antiviral activity IC50 (nM) 0%.
Setting [2] is: Human immunodeficiency virus 1, 40% serum, read-out: 92HT599-Antiviral activity IC50 (nM) 40%.

Structures can show the parent of a compound that is named as a salt. Where two headings read alike, the source gives them in different places.

With `CC(C)C1=C2[C@H]3CC[C@@H]4[C@@]5(C)CC[C@H](OC(=O)[C@H]6C[C@@H](C(=O)O)C6(C)C)C(C)(C)[C@@H]5CC[C@@]4(C)[C@]3(C)CC[C@@]2(NC(=O)N(CCN(C)C)Cc2ccc(Cl)cc2)CC1=O` [Example 1, (1R,3S)-3-((((3aR,5aR,5bR,7aR,9S,11aR,11bR,13aS)-3a-(3-(4-chlorobenzyl)-3-(2-(dimethylamino)ethyl)ureido)-1-isopropyl-5a,5b,8,8,11a-pentamethyl-2-oxo-3,3a,4,5,5a,5b,6,7,7a,8,9,10,11,11a,11b,12,13,13a-octadecahydro-2H-cyclopenta[a]chrysen-9-yl)oxy)carbonyl)-2,2-dimethylcyclobutane-1-carboxylic acid hydrochloride], the IC50 by setting is: under setting [1], < 5 nM; under setting [2], > 50 nM.

As to `CC(C)C1=C2[C@H]3CC[C@@H]4[C@@]5(C)CC[C@H](OC(=O)[C@H]6C[C@@H](C(=O)O)C6(C)C)C(C)(C)[C@@H]5CC[C@@]4(C)[C@]3(C)CC[C@@]2(NC(=O)N2CCC[C@H]2c2ncc(-c3ccccc3)n2CCN(C)C)CC1=O` [Example 2, (1R,3S)-3-((((3aR,5aR,5bR,7aR,9S,11aR,11bR,13aS)-3a-((S)-2-(1-(2-(dimethylamino)ethyl)-5-phenyl-1H-imidazol-2-yl)pyrrolidine-1-carboxamido)-1-isopropyl-5a,5b,8,8,11a-pentamethyl-2-oxo-3,3a,4,5,5a,5b,6,7,7a,8,9,10,11,11a,11b,12,13,13a-octadecahydro-2H-cyclopenta[a]chrysen-9-yl)oxy)carbonyl)-2,2-dimethylcyclobutane-1-carboxylic acid], the IC50 under setting [1] was < 5 nM and the IC50 under setting [2] is < 30 nM.

Take `CC(C)C1=C2[C@H]3CC[C@@H]4[C@@]5(C)CC[C@H](OC(=O)[C@H]6C[C@@H](C(=O)O)C6(C)C)C(C)(C)[C@@H]5CC[C@@]4(C)[C@]3(C)CC[C@@]2(NC(=O)N2CCC[C@H]2c2ncc(-c3ccccc3)[nH]2)CC1=O` [Example 3, (1R,3S)-3-((((3aR,5aR,5bR,7aR,9S,11aR,11bR,13aS)-1-isopropyl-5a,5b,8,8,11a-pentamethyl-2-oxo-3a-((S)-2-(5-phenyl-1H-imidazol-2-yl)pyrrolidine-1-carboxamido)-3,3a,4,5,5a,5b,6,7,7a,8,9,10,11,11a,11b,12,13,13a-octadecahydro-2H-cyclopenta[a]chrysen-9-yl)oxy)carbonyl)-2,2-dimethylcyclobutane-1-carboxylic acid]: the IC50 runs as follows: under setting [1], 5.01 to 10 nM; under setting [2], 30 to 50 nM.

`CC(C)C1=C2[C@H]3CC[C@@H]4[C@@]5(C)CC[C@H](OC(=O)[C@H]6C[C@@H](C(=O)O)C6(C)C)C(C)(C)[C@@H]5CC[C@@]4(C)[C@]3(C)CC[C@@]2(NC(=O)NC2(c3ccc(Cl)cc3)CC2)CC1=O` [Example 4, (1R,3S)-3-((((3aR,5aR,5bR,7aR,9S,11aR,11bR,13aS)-3a-(3-(1-(4-chlorophenyl)cyclopropyl)ureido)-1-isopropyl-5a,5b,8,8,11a-pentamethyl-2-oxo-3,3a,4,5,5a,5b,6,7,7a,8,9,10,11,11a,11b,12,13,13a-octadecahydro-2H-cyclopenta[a]chrysen-9-yl)oxy)carbonyl)-2,2-dimethylcyclobutane-1-carboxylic acid]: the IC50 is < 5 nM under setting [1] and > 50 nM under setting [2].

On to `CC(C)C1=C2[C@H]3CC[C@@H]4[C@@]5(C)CC[C@H](OC(=O)[C@H]6C[C@@H](C(=O)O)C6(C)C)C(C)(C)[C@@H]5CC[C@@]4(C)[C@]3(C)CC[C@@]2(NC(=O)NC(C)(C)c2ccc(Cl)cc2)CC1=O` [Example 5, (1R,3S)-3-((((3aR,5aR,5bR,7aR,9S,11aR,11bR,13aS)-3a-(3-(2-(4-chlorophenyl)propan-2-yl)ureido)-1-isopropyl-5a,5b,8,8,11a-pentamethyl-2-oxo-3,3a,4,5,5a,5b,6,7,7a,8,9,10,11,11a,11b,12,13,13a-octadecahydro-2H-cyclopenta[a]chrysen-9-yl)oxy)carbonyl)-2,2-dimethylcyclobutane-1-carboxylic acid], for which the IC50 runs as follows: under setting [1], < 5 nM; under setting [2], < 30 nM.

For `CC(C)C1=C2[C@H]3CC[C@@H]4[C@@]5(C)CC[C@H](OC(=O)[C@H]6C[C@@H](C(=O)O)C6(C)C)C(C)(C)[C@@H]5CC[C@@]4(C)[C@]3(C)CC[C@@]2(NC(=O)N(CCN(C)C)CC2(c3ccc(Cl)cc3)CC2)CC1=O` [Example 6, (1R,3S)-3-((((3aR,5aR,5bR,7aR,9S,11aR,11bR,13aS)-3a-(3-((1-(4-chlorophenyl)cyclopropyl)methyl)-3-(2-(dimethylamino)ethyl)ureido)-1-isopropyl-5a,5b,8,8,11a-pentamethyl-2-oxo-3,3a,4,5,5a,5b,6,7,7a,8,9,10,11,11a,11b,12,13,13a-octadecahydro-2H-cyclopenta[a]chrysen-9-yl)oxy)carbonyl)-2,2-dimethylcyclobutane-1-carboxylic acid], the IC50 was < 5 nM under setting [1] and 30 to 50 nM under setting [2].

As for `CC(C)C1=C2[C@H]3CC[C@@H]4[C@@]5(C)CC[C@H](OC(=O)[C@H]6C[C@@H](C(=O)O)C6(C)C)C(C)(C)[C@@H]5CC[C@@]4(C)[C@]3(C)CC[C@@]2(NC(=O)NCc2ccc(Cl)cc2)CC1=O` [Example 7, (1R,3S)-3-((((3aR,5aR,5bR,7aR,9S,11aR,11bR,13aS)-3a-(3-(4-chlorobenzyl)ureido)-1-isopropyl-5a,5b,8,8,11a-pentamethyl-2-oxo-3,3a,4,5,5a,5b,6,7,7a,8,9,10,11,11a,11b,12,13,13a-octadecahydro-2H-cyclopenta[a]chrysen-9-yl)oxy)carbonyl)-2,2-dimethylcyclobutane-1-carboxylic acid], the IC50 was 5.01 to 10 nM under setting [1] and 30 to 50 nM under setting [2].

Regarding `Cc1nnc(C(C)C)n1C1CC2CCC(C1)N2C(=O)N[C@@]12CC[C@]3(C)[C@H](CC[C@@H]4[C@@]5(C)CC[C@H](OC(=O)[C@H]6C[C@@H](C(=O)O)C6(C)C)C(C)(C)[C@@H]5CC[C@]43C)C1=C(C(C)C)C(=O)C2` (stereo partly drawn) [Example 8, (1R,3S)-3-((((3aR,5aR,5bR,7aR,9S,11aR,11bR,13aS)-1-isopropyl-3a-((1R,3S,5S)-3-(3-isopropyl-5-methyl-4H-1,2,4-triazol-4-yl)-8-azabicyclo[3.2.1]octane-8-carboxamido)-5a,5b,8,8,11a-pentamethyl-2-oxo-3,3a,4,5,5a,5b,6,7,7a,8,9,10,11,11a,11b,12,13,13a-octadecahydro-2H-cyclopenta[a]chrysen-9-yl)oxy)carbonyl)-2,2-dimethylcyclobutane-1-carboxylic acid], the concentration for half-maximal inhibition (IC50) was 5.01 to 10 nM under setting [1] and > 50 nM under setting [2].

Take `CC(C)C1=C2[C@H]3CC[C@@H]4[C@@]5(C)CC[C@H](OC(=O)[C@H]6C[C@@H](C(=O)O)C6(C)C)C(C)(C)[C@@H]5CC[C@@]4(C)[C@]3(C)CC[C@@]2(NC(=O)NC(C)(C)c2ncc(-c3ccccc3)[nH]2)CC1=O` [Example 10, (1R,3S)-3-((((3aR,5aR,5bR,7aR,9S,11aR,11bR,13aS)-1-isopropyl-5a,5b,8,8,11a-pentamethyl-2-oxo-3a-(3-(2-(5-phenyl-1H-imidazol-2-yl)propan-2-yl)ureido)-3,3a,4,5,5a,5b,6,7,7a,8,9,10,11,11a,11b,12,13,13a-octadecahydro-2H-cyclopenta[a]chrysen-9-yl)oxy)carbonyl)-2,2-dimethylcyclobutane-1-carboxylic acid]: the IC50 was < 5 nM under setting [1] and < 30 nM under setting [2].

For the molecule `CC(C)C1=C2[C@H]3CC[C@@H]4[C@@]5(C)CC[C@H](OC(=O)[C@H]6C[C@@H](C(=O)O)C6(C)C)C(C)(C)[C@@H]5CC[C@@]4(C)[C@]3(C)CC[C@@]2(NC(=O)N(CCN2CCCCC2)Cc2ccc(Cl)cc2)CC1=O` [Example 11, (1R,3S)-3-((((3aR,5aR,5bR,7aR,9S,11aR,11bR,13aS)-3a-(3-(4-chlorobenzyl)-3-(2-(piperidin-1-yl)ethyl)ureido)-1-isopropyl-5a,5b,8,8,11a-pentamethyl-2-oxo-3,3a,4,5,5a,5b,6,7,7a,8,9,10,11,11a,11b,12,13,13a-octadecahydro-2H-cyclopenta[a]chrysen-9-yl)oxy)carbonyl)-2,2-dimethylcyclobutane-1-carboxylic acid hydrochloride], the IC50 is < 5 nM under setting [1] and 30 to 50 nM under setting [2].

In the case of `Cc1nnc(C(C)C)n1CCN1CCN(C(=O)N[C@@]23CC[C@]4(C)[C@H](CC[C@@H]5[C@@]6(C)CC[C@H](OC(=O)[C@H]7C[C@@H](C(=O)O)C7(C)C)C(C)(C)[C@@H]6CC[C@]54C)C2=C(C(C)C)C(=O)C3)CC1` [Example 12, (1R,3S)-3-((((3aR,5aR,5bR,7aR,9S,11aR,11bR,13aS)-1-isopropyl-3a-(4-(2-(3-isopropyl-5-methyl-4H-1,2,4-triazol-4-yl)ethyl)piperazine-1-carboxamido)-5a,5b,8,8,11a-pentamethyl-2-oxo-3,3a,4,5,5a,5b,6,7,7a,8,9,10,11,11a,11b,12,13,13a-octadecahydro-2H-cyclopenta[a]chrysen-9-yl)oxy)carbonyl)-2,2-dimethycyclobutane-1-carboxylic acid], the IC50 is, setting by setting: under setting [1], > 10 nM; under setting [2], > 50 nM.

`CC(C)C1=C2[C@H]3CC[C@@H]4[C@@]5(C)CC[C@H](OC(=O)[C@H]6C[C@@H](C(=O)O)C6(C)C)C(C)(C)[C@@H]5CC[C@@]4(C)[C@]3(C)CC[C@@]2(NC(=O)N2CCC[C@H]2CN2CCCC2)CC1=O` [Example 13, (1R,3S)-3-((((3aR,5aR,5bR,7aR,9S,11aR,11bR,13aS)-1-isopropyl-5a,5b,8,8,11a-pentamethyl-2-oxo-3a-((S)-2-(pyrrolidin-1-ylmethyl)pyrrolidine-1-carboxamido)-3,3a,4,5,5a,5b,6,7,7a,8,9,10,11,11a,11b,12,13,13a-octadecahydro-2H-cyclopenta[a]chrysen-9-yl)oxy)carbonyl)-2,2-dimethylcyclobutane-1-carboxylic acid]: the IC50 was < 5 nM under setting [1] and > 50 nM under setting [2].
